target: T1, wildtype HIV-1 protease (Human immunodeficiency virus type 1 group M subtype B, UniProt P04585); assay: Assay for inhibition of microbial expressed HIV protease (Pepcleav); format: biochemical; details: wild type HIV-1 protease expressed in E. coli, peptide substrate, pH 5.5; mean of at least two independent experiments; read-out: Pepcleav
T1 construct: the wildtype HIV-1 protease (which was expressed in Escherichia coli); made in house; host or cells: Escherichia coli
Description: Assay for Inhibition of Microbial Expressed HIV Protease (“Pepcleav”)
Studies of the inhibition of the wildtype HIV-1 protease (which was expressed in Escherichia coli) were carried out with a peptide substrate [Val-Ser-Gln-Asn-(βnaphthyl)Ala-Pro-Ile-Val (SEQ ID NO:1)]. The inhibitor is first preincubated with the HIV-1 protease (wild type) enzyme in assay buffer (50 mM sodium acetate, pH 5.5, 100 mM NaCl, and 0.1% BSA) for 30 minutes at room temperature. Substrate is added to 400 micromolar in a total volume of 20 microliters containing 20 picomolar HIV-1 protease (final) and the reaction is incubated for 1 hour at 30° C. The reaction is quenched with the addition of formic acid and indinavir to 0.012% and 150 nM final concentrations, respectively. The product formation is determined after separation of product and substrate on a Zorbax Eclipse XDB-C 18 column connected to an API 4000 mass spectrometer (Applied Biosystems) with multiple reaction monitoring (transitions were 644.5/428.9 and 615.4/422.2 (M1/M3) for product and indinavir respectively). The extent of inhibition of the reaction is determined from the peak area of the products.

SMILES	IC50
COC(=O)N[C@H](C(=O)Nc1ccccc1CC[C@@H]1CN[C@H](CCc2ccccc2NC(=O)NCc2ccccc2)CO1)C(c1ccccc1)c1ccccc1 [Example 75, methyl N-[(1S)-1-benzhydryl-2-[[2-[2-[(2R,5R)-5-[2-[2-(benzylcarbamoylamino)phenyl]ethyl]morpholin-2-yl]ethyl]phenyl]amino]-2-oxo-ethyl]carbamate]	4.1 nM
COC(=O)N[C@H](C(=O)Nc1ccccc1CC[C@@H]1CN[C@H](COC(=O)NCc2cccnc2)CO1)C(c1ccccc1)c1ccccc1 [Example 20, methyl N-[(1S)-1-benzhydryl-2-oxo-2-[[2-[2-[(2R,5S)-5-(3-pyridylmethylcarbamoyloxymethyl)morpholin-2-yl]ethyl]phenyl]amino]ethyl]carbamate]	78 nM
N[C@H](C(=O)Nc1cccc(F)c1CC[C@@H]1CN[C@H](COC(=O)NCC(F)(F)F)CO1)[C@H](c1ccccc1)c1ccc(Oc2ccccc2)cc1 [Example 227, (βR)-N-(3-fluoro-2-{2-[(2R,5S)-5-( {[(2,2,2-trifluoroethyl)carbamoyl]oxy}methyl)morpholin-2-yl]ethyl}phenyl)-O,β-diphenyl-L-tyrosinamide]	340 nM
COC(=O)N[C@H](C(=O)Nc1ccccc1CC[C@@H]1CN[C@H](C(=O)NNc2ccccc2)CO1)C(c1ccccc1)c1ccccc1 [Example 9, Nα-(methoxycarbonyl)-β-phenyl-N-[2-(2-{(2R,5S)-5-[(2-phenylhydrazinyl)carbonyl]morpholin-2-yl}ethyl)phenyl]-L-phenylalaninamide]	88 nM
COC(=O)N[C@H](C(=O)Nc1cnccc1CC[C@@H]1CN[C@H](COC(=O)NCC(F)(F)F)CO1)C(c1ccccc1)c1ccccc1 [Example 34, Nα-(methoxycarbonyl)-β-phenyl-N-(4-{2-[(2R,5S)-5-({[(2,2,2-trifluoroethyl)carbamoyl]oxy}methyl)morpholin-2-yl]ethyl}pyridin-3-yl)-L-phenylalaninamide]	14 nM
COC(=O)N[C@H](C(=O)Nc1ccccc1CC[C@@H]1CN[C@H](COC(=O)NCCN(C)C)CO1)C(c1ccccc1)c1ccccc1 [Example 28, methyl N-[(1S)-1-benzhydryl-2-[[2-[2-[(2R,5S)-5-(2-dimethylaminoethylcarbamoyloxymethyl)morpholin-2-yl]ethyl]phenyl]amino]-2-oxo-ethyl]carbamate]	250 nM
COC(=O)N[C@H](C(=O)Nc1ccccc1CC[C@@H]1CN[C@H](CCc2ccccc2N)CO1)C(c1ccccc1)c1ccccc1 [Example 72, methyl N-[(1S)-1-[[2-[2-[(2R,5R)-5-[2-(2-aminophenyl)ethyl]morpholin-2-yl]ethyl]phenyl]carbamoyl]-2,2-diphenyl-ethyl]carbamate]	14 nM
COC(=O)Nc1ccccc1CC[C@@H]1CO[C@H](CCc2ccccc2NC(=O)[C@@H](NC(=O)OC)C(c2ccccc2)c2ccccc2)CN1 [Example 76, methyl N-[(1S)-1-benzhydryl-2-[[2-[2-[(2R,5R)-5-[2-[2-(methoxy-carbonylamino)phenyl]ethyl]morpholin-2-yl]ethyl]phenyl]amino]-2-oxo-ethyl]carbamate]	52 nM
N[C@H](C(=O)Nc1cccc(F)c1CC[C@@H]1CN[C@H](COC(=O)NCC(F)(F)F)CO1)[C@H](c1ccc(F)cc1)c1ccc(Oc2ccccc2)cc1 [Example 230, (βS)-β-(4-fluorophenyl)-N-(3-fluoro-2-{2-[(2R,5S)-5-({[(2,2,2-trifluoroethyl)carbamoyl]oxy}methyl)morpholin-2-yl]ethyl}phenyl)-O-phenyl-L-tyrosinamide]	180 nM
COC(=O)N[C@H](C(=O)Nc1ccccc1CC[C@@H]1CN[C@H](CNC(=O)c2ccccc2)CO1)C(c1ccccc1)c1ccccc1 [Example 52, Nα-(methoxycarbonyl)-β-phenyl-N-(2-{2-[(2R,5R)-5-{[(phenylcarbonyl)amino]methyl}morpholin-2-yl]ethyl}phenyl)-L-phenylalaninamide]	96 nM
N[C@H](C(=O)Nc1cncc(F)c1CC[C@@H]1CN[C@H](COC(=O)N[C@@H]2COC[C@@H]2F)CO1)C(c1ccc(F)cc1)c1ccc(F)cc1 [Example 211]	12 nM
